Experimental data: publication PMC8911927, “Synthesis and Biological Evaluation of 1-(2-(6-Methoxynaphthalen-2-yl)-6-methylnicotinoyl)-4-Substituted Semicarbazides/Thiosemicarbazides as Anti-Tumor Nur77 Modulators” (Molecules, 2022)

Tests used:
[1] = test system: MDA-MB231 cells; assay: MTT cytotoxicity, MDA-MB231; format: cell-based; details: read-out: Cancer Cells IC50, MDA-MB231
Protocol: (§1) All of the cell lines were obtained from the American Type Culture Collection (ATCC, Manassas, VA, USA) and grown in DMEM or RPMI culture medium containing 10% fetal bovine serum (v/v) in 5% CO2 at 37 °C. Confluent cells in good state were cultured in 96-well plates (5–10 × 10^4 cells/mL). After cells were attached to the plate, compounds with various concentrations were applied at 37 °C for 72 h. […] The supernatant was removed, and the cells were dissolved in 100 μL dimethyl sulfoxide and shaken for 5 min.

[2] = test system: HGC-27 cells; assay: MTT cytotoxicity, HGC-27; format: cell-based, human; details: 72 h, mean values
Protocol: (§2) All of the cell lines were obtained from the American Type Culture Collection (ATCC, Manassas, VA, USA) and grown in DMEM or RPMI culture medium containing 10% fetal bovine serum (v/v) in 5% CO2 at 37 °C.
(§3) Confluent cells in good state were cultured in 96-well plates (5–10 × 10^4 cells/mL). After cells were attached to the plate, compounds with various concentrations were applied at 37 °C for 72 h. Then, the cells were incubated with 10 μL of 5 mg/mL MTT reagent at 37 °C for 4 h. The supernatant was removed, and the cells were dissolved in 100 μL dimethyl sulfoxide and shaken for 5 min. Finally, the light absorption (OD) of the dissolved cells was measured at […].

[3] = test system: HeLa cells; assay: MTT cytotoxicity, HeLa; format: cell-based, human; details: 72 h, mean values
Protocol: as §2, §3

[4] = test system: LO2 cells; assay: MTT cytotoxicity, LO2 normal cells; format: cell-based
Protocol: as §1

[5] = test system: MRC-5 cells; assay: MTT cytotoxicity, MRC-5 normal cells; format: cell-based
Protocol: as §1

[6] = test system: A549 cells; assay: MTT cytotoxicity, A549; format: cell-based; details: read-out: Cancer Cells IC50, A549
Protocol: as §1

[7] = test system: MCF-7 cells; assay: MTT cytotoxicity, MCF-7; format: cell-based, human; details: mean values
Protocol: as §2, §3

[8] = test system: A875 cells; assay: MTT cytotoxicity, A875; format: cell-based; details: read-out: Cancer Cells IC50, A875
Protocol: as §1

[9] = test system: HepG2 cells; assay: MTT cytotoxicity, HepG2; format: cell-based; details: read-out: Cancer Cells IC50, HepG2
Protocol: as §1

[10] = test system: H460 cells; assay: MTT cytotoxicity, H460; format: cell-based; details: read-out: Cancer Cells IC50, H460
Protocol: as §1

[11] = test system: cleaved PARP; assay: Western blot of cleaved PARP; format: cell-based, human; details: HGC-27 cells, different times and concentrations, 24 h
Protocol: (§4) Equal amounts of the lysates were electrophoresed on 10% SDS-PAGE gel and transferred onto PVDF membranes. After blocked with 5% nonfat milk in TBST (50 mM Tris-HCl (pH 7.4), 150 mM NaCl and 0.1% Tween 20) for 1 h, the membranes were incubated with various primary antibodies overnight and secondary antibodies for 3 h, finally detected using an ECL system. The blots were captured with ChemiDoc XRS+System (Bio-Rad, Hercules, CA, USA).

[12] = biological target: T1, Nur77 (Homo sapiens, UniProt P22736); assay: Nur77 localization by nuclear-cytosol fractionation and immunofluorescence; format: cell-based; details: HGC-27 cells, 3 h, 10 µM for immunofluorescence
T1 construct: endogenous in cells; host or cells: HGC-27
Protocol: Cells in the logarithmic phase of growth were seeded in 6-cm dishes; after, apposition cells were treated with compound 9h for 3 h. The medium was discarded and washed twice with pre-chilled PBS, then the cells were scraped off with a cytoscraper and collected into 1.5 mL centrifuge tubes and centrifuged at 1500 rpm for 3 min. Next, 80 μL of Buffer B (containing 100× protease inhibitor) were added for 20 min in an ice bath, followed by 20 μL of Buffer B containing 1% TritonX-100. The mixture was vortexed for 10 s, centrifuged at 10,000× g for 15 min at 4 °C, the supernatant collected as cytoplasmic proteins and the precipitate as the nuclear fraction. Then, 100 μL of Buffer C containing 0.4% TritonX-100 were added and centrifuged for 15 min at 4 °C, and 100 uL of Buffer C containing 0.4% TritonX-100 were added and vortexed for 30 min at 4 °C, centrifuged at 15,000× g for 15 min at 4 °C, and the supernatant was the nucleus protein.
The cells were inoculated into the culture dish with preplaced treated coverslips, and the coverslips were removed when the cells were close to growing into a monolayer. Then, they were washed twice with PBS and 4% paraformaldehyde was used to fix the cells for 30 min. The cells were permeabilized with 1‰ TritonX-100 for 10 min. […] One drop of blocker containing DAPI dye was added and the slice sealed and this was examined by fluorescence microscopy.

[13] = test system: Nur77; assay: Western blot of Nur77 expression; format: cell-based, human; details: HGC-27 cells, concentration gradient
Protocol: as §4

[14] = test system: HGC-27 cells; assay: Colony formation assay; format: cell-based, human; details: treatment for two weeks, 5 μM and 10 μM, dose-dependent
Protocol: HGC-27 cells were cultured in a six-well plate (500 cells/well) and treated with 9u and 9h in 10% serum medium for two weeks, then fixed with methanol at room temperature and stained with 0.1% crystal violet, and images were scanned with a scanner.

[15] = test system: HGC-27 cells; assay: Flow cytometry cell cycle assay; format: cell-based, human; parameters: dose or concentration left out as unconfirmed; details: 8 h of treatment
Protocol: Flow cytometry analysis was applied for cell cycle detection. Firstly, HGC-27 cell was adjusted to 1 × 10^6/mL, inoculated into a six-well plate and placed in an incubator at 37 °C containing 5% CO2 saturated humidity overnight. After the cells were fully attached to the plate, […] 9u and 9h were administrated to the cells for 8 h. After cells were collected and fixed with 70% ethanol, DAPI was applied to stain the cells at the final concentration of 1 μg/mL; subsequently, on-board testing by flow cytometry (Cytoflex S (Beckman Coulter, Brea, CA, USA)) was conducted.

T1 sequence (P22736 whole entry): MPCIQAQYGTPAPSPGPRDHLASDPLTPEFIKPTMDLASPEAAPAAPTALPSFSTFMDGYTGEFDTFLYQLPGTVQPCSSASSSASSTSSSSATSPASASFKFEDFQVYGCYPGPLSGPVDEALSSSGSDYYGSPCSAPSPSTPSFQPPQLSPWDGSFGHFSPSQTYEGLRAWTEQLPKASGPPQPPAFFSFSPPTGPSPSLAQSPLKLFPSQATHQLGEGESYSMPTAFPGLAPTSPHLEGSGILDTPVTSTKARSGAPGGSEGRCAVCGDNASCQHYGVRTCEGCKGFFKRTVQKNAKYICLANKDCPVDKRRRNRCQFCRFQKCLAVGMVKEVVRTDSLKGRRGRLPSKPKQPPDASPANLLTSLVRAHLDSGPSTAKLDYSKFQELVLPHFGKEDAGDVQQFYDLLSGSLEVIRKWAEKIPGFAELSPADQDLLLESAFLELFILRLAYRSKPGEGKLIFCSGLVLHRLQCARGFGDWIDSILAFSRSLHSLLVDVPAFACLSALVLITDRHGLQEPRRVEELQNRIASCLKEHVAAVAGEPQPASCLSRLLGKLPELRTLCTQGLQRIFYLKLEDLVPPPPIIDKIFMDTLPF

| Molecule | IC50 [1] [µM] | IC50 [2] [µM] | IC50 [3] [µM] | IC50 [4] [µM] | IC50 [5] [µM] | IC50 [6] [µM] | IC50 ([7]; 72 h) [µM] | IC50 [8] [µM] | IC50 [9] [µM] | IC50 [10] [µM] | melting point [°C] | IC50 ([2]; Homo sapiens) [µM] | IC50 ([3]; Homo sapiens) [µM] | IC50 ([7]; Homo sapiens, MCF7, 72 h) [µM] | PARP cleavage [11] | Nur77 nuclear export [12] | Nur77 expression [13] | Colony formation of HGC-27 cells [14] | Effect on cell cycle [15] |
| --- | --- | --- | --- | --- | --- | --- | --- | --- | --- | --- | --- | --- | --- | --- | --- | --- | --- | --- | --- |
| N.N.[Cl][Pt][Cl] [Cisplatin, reference compound] | 20.2 ± 0.25 | 8.9 ± 0.2 | 12.45 ± 0.11 | > 50 | > 50 | 9.3 ± 0.11 | 10.5 ± 0.31 | 21.2 ± 0.08 | 15.2 ± 0.29 | 16.6 ± 0.09 |  |  |  |  |  |  |  |  |  |
| COc1ccc2cc(-c3ccc(C(=O)NNC(=O)NC4CCCCC4)c(C)n3)ccc2c1 [Compound 9b] |  |  |  |  |  |  |  |  |  |  | 236 to 237 | 50.26 ± 0.2 | 30.5 ± 0.4 | 41.5 ± 0.78 |  |  |  |  |  |
| CCCCCCNC(=S)NNC(=O)c1ccc(C)nc1-c1ccc2cc(OC)ccc2c1 [Compound 9l, 4-Hexyl-1-(2-(6-methoxynaphthalen-2-yl)-6-methylnicotinoyl)thiosemicarbazide] |  |  |  |  |  |  |  |  |  |  | 195 to 196 | 38.1 ± 0.21 | 45.4 ± 0.11 | 40.2 ± 0.33 |  |  |  |  |  |
| 4-(2-Chlorophenyl)-1-(2-(6-methoxynaphthalen-2-yl)-6-methylnicotinoyl)semicarbazide [Compound 9h] | 4.3 ± 0.33 | 1.4 ± 0.11 | 4.12 ± 0.08 | > 50 | > 50 | 7.3 ± 0.21 | 3.3 ± 0.21 | > 50 | 5.1 ± 0.01 | 9.2 ± 0.24 |  |  |  |  | induce the PARP cleavage in a dose-dependent and time-dependent manner | significantly induced Nur77 nuclear export | induced Nur77 expression | completely inhibited colony formation | induced cell cycle blockage in G2-M phase |
| 4-(2-Chlorophenyl)-1-(2-(6-methoxynaphthalen-2-yl)-6-methylnicotinoyl)thiosemicarbazide [Compound 9u] | 21 ± 0.01 | 4.56 ± 0.09 | 6.1 ± 0.5 | 41 ± 0.7 | 22.1 ± 0.11 | 11.2 ± 0.46 | 6.44 ± 0.07 | 15.7 ± 0.11 | 7.2 ± 0.11 | 14 ± 0.38 |  |  |  |  | induce the PARP cleavage in a dose-dependent and time-dependent manner |  |  | completely inhibited colony formation | induced cell cycle blockage in G2-M phase |
